Test results reported in publication PMC4082664 (Alcoholism, clinical and experimental research, 2011).
Like-named read-outs stand apart in the source and are kept apart here.

Columns and labels:
CYP3A4 [1] = molecular target: T1, CYP3A4 (Homo sapiens, UniProt P08684); settings: ref Kumar et al., 2010; cited from earlier work
CYP3A4 [2] = molecular target: T1, CYP3A4; assay: Spectral binding; settings: for δAmax (maximum spectral change): 0.5 µM CYP3A4, 25°C, pH 7.4; for Type of spectral binding with CYP3A4: no ethanol; for Type of spectral binding with CYP3A4 at low concentrations: low concentrations (<0.5 µM), data not shown

T1 sequence (P08684 whole entry): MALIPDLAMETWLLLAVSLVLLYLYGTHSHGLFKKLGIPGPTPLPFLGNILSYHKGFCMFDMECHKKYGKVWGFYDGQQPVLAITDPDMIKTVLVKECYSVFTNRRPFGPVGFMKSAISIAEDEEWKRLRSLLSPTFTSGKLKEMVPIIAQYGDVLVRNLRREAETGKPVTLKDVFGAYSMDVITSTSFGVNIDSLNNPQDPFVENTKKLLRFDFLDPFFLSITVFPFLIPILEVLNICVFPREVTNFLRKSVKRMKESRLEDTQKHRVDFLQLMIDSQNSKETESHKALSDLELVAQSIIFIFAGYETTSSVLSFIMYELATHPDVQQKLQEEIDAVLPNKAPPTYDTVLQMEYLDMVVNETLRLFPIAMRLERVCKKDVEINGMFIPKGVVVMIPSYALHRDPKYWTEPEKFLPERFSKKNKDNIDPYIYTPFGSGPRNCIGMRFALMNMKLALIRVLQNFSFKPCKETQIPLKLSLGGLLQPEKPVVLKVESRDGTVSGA

δAmax (maximum spectral change) (CYP3A4 [2]; 20 mM ethanol) | δAmax (maximum spectral change) (CYP3A4 [2]; No ethanol) | Type of spectral binding with CYP3A4 (CYP3A4 [2]) | Type of spectral binding with CYP3A4 at low concentrations (CYP3A4 [2]) | SMILES | Type of spectral binding with CYP3A4 (CYP3A4 [1])
 |  |  |  | Cc1c(O)cccc1C(=O)N[C@@H](CSc1ccccc1)[C@H](O)CN1C[C@H]2CCCC[C@H]2C[C@H]1C(=O)NC(C)(C)C [nelfinavir] | high-affinity type I
0.006 ± 0.0003 | 0.011 ± 0.0001 | type I |  | CC(C)(C)NC(=O)[C@@H]1C[C@@H]2CCCC[C@@H]2CN1C[C@@H](O)[C@H](Cc1ccccc1)NC(=O)[C@H](CC(N)=O)NC(=O)c1ccc2ccccc2n1 [Saquinavir] | 
 |  |  |  | CCO [ethanol] | type I
0.012 ± 0.0002 | 0.013 ± 0.0003 | type I | weak type II | COC(=O)N[C@H](C(=O)N[C@@H](Cc1ccccc1)[C@@H](O)CN(Cc1ccc(-c2ccccn2)cc1)NC(=O)[C@@H](NC(=O)OC)C(C)(C)C)C(C)(C)C [Atazanavir] | 
0.012 ± 0.0003 | 0.015 ± 0.0003 | type I | weak type II | CCC[C@@]1(CCc2ccccc2)CC(O)=C([C@H](CC)c2cccc(NS(=O)(=O)c3ccc(C(F)(F)F)cn3)c2)C(=O)O1 [Tipranavir] | 

SMILES | δAmax (maximum spectral change) (CYP3A4 [2]; 20 mM ethanol) | δAmax (maximum spectral change) (CYP3A4 [2]; No ethanol) | Type of spectral binding with CYP3A4 (CYP3A4 [2]) | Type of spectral binding with CYP3A4 at low concentrations (CYP3A4 [2]) | Type of spectral binding with CYP3A4 (CYP3A4 [1])
CC(C)CN(C[C@@H](O)[C@H](Cc1ccccc1)NC(=O)O[C@H]1CCOC1)S(=O)(=O)c1ccc(N)cc1 [Amprenavir] |  |  | did not show detectable spectral binding |  | 
